# System: cynomolgus monkeys (Macaca fascicularis)
# Assay: Intravenous glucose tolerance test (IVGTT) in cynomolgus monkeys
# Type: in vivo
# Conditions: fasted, test article 6 mg/mL IV bolus 1-6 min before IV glucose 0.5 g/kg, plasma insulin 0-60 min, FIG. 1
# Procedure: Intravenous Glucose Tolerance Test (IVGTT) in Cynomolgus Monkeys
# Aged ([…]) cynomolgus monkeys (Macaca fascicularis; N=4-5/test article) were fasted overnight and anesthetized with ketamine prior to the intravenous glucose tolerance test (IVGTT). The test articles were formulated at 6 mg/mL in vehicle (5% polyethylene glycol 400: 95% (12% (w/v) sulfobutylether-β-cyclodextrin in deionized water) (v/v)]) and administered by intravenous bolus into a peripheral vein 1-6 minutes prior to the IVGTT. The IVGTT was initiated by administration of an IV bolus of glucose (0.5 g/kg as a 50% glucose solution). Blood samples were collected from a peripheral vein 0, 1, 3, 5, 10, 20, 40 and 60 minutes upon completion of the IV bolus glucose injection. The blood samples were collected directly into potassium ethylene diamine tetra-acetic acid tubes and plasma separated by centrifugation at 2,500 g for 10 minutes within 30 minutes of collection. The plasma from all time points was analyzed for insulin concentrations (μU/mL) using a Cobas e411 Immunology analyzer. Insulin area-under-the-curve (AUC) was calculated using GraphPad Prism software (v 9).
row,Structure (SMILES),insulin secretion / insulin AUC
1,"CCn1cncc1Cn1c(CN2CCC(Oc3ccnc(COc4ccc(Cl)cc4C#N)c3)CC2)nc2ccc(C(=O)O)cc21 [Compound 171, 2-{[4-({2-[(4-chloro-2-cyanophenoxy)methyl]pyridin-4-yl}oxy)piperidin-1-yl]methyl}-1-[(1-ethyl-1H-imidazol-5-yl)methyl]-1H-1,3-benzodiazole-6-carboxylic acid]",an increase in insulin secretion was observed
2,O=C(O)c1ccc2nc(CN3CCC(Oc4ccnc(COc5ccc(F)cc5Cl)n4)CC3)n(C[C@@H]3CCO3)c2c1 [Compound 326],an increase in insulin secretion was observed
3,O=C(O)c1ccc2nc(CN3CCC(Oc4ccnc(COc5ccc(C(F)(F)F)cc5F)n4)CC3)n(C[C@@H]3CCO3)c2c1 [Compound 338],an increase in insulin secretion was observed
4,"CCn1cncc1Cn1c(CN2CCC(Oc3ccnc(COc4ccc(Cl)cc4Cl)c3)CC2)nc2ccc(C(=O)O)cc21 [Example 145, 2-((4-((2-((2,4-Dichlorophenoxy)methyl)pyridin-4-yl)oxy)piperidin-1-yl)methyl)-1-((1-ethyl-1H-imidazol-5-yl)methyl)-1H-benzo[d]imidazole-6-carboxylic acid]",an increase in insulin secretion was observed
5,"C[C@H]1C[C@@H](Oc2ccnc(COc3ccc(C#N)cc3F)n2)CCN1Cc1nc2ccc(C(=O)O)cc2n1C[C@@H]1CCO1 [Example 313, 2-(((2S,4S)-4-((2-((4-Cyano-2-fluorophenoxy)methyl)pyrimidin-4-yl)oxy)-2-methylpiperidin-1-yl)methyl)-1-(((S)-oxetan-2-yl)methyl)-1H-benzo[d]imidazole-6-carboxylic acid]",an increase in insulin secretion was observed
6,"C[C@H]1C[C@@H](Oc2ccnc(COc3ccc(F)cc3C#N)n2)CCN1Cc1nc2ccc(C(=O)O)cc2n1C[C@@H]1CCO1 [Example 355, 2-(((2S,4S)-4-((2-((2-cyano-4-fluorophenoxy)methyl)pyrimidin-4-yl)oxy)-2-methylpiperidin-1-yl)methyl)-1-(((S)-oxetan-2-yl)methyl)-1H-benzo[d]imidazole-6-carboxylic acid]",an increase in insulin secretion was observed

# Target: T1, human GLP-1 receptor (Homo sapiens, UniProt P43220)
# T1 construct: expressed in transfected cells
# Assay: GLP-1R cAMP assay (HitHunter cAMP accumulation)
# Type: cell-based
# Conditions: CHO cells stably overexpressing human GLP-1 receptor, 30 min, 20-point dose response in triplicate
# Procedure: CAMP accumulation was measured in Chinese hamster ovary (CHO) cells stably overexpressing the human GLP-1 receptor using the HitHunter CAMP Assay for Small Molecules Kit (Eurofins). Briefly, cells were grown in Ham's F12 Nutrient Mix with 10% FBS, and lifted with Cell Dissociation Buffer, Enzyme free, PBS based (ThermoFisher). […] The anti-cAMP antibody reagent was then added to cells at a 1:2 ratio and 5 μL of mixture was seeded in 384-well small volume white assay plates, at 10,000 cells/well. Cells were then treated with 50 nL compound using an ECHO 550 acoustic dispenser (Labcyte) in a 20-point dose response format in triplicate for 30 min. Cells were then lysed, and detection reagents added according to the manufacturer's protocol. After overnight incubation, luminescence was measured using a Perkin Elmer Envision plate reader. Dose response curves were analyzed using GraphPad Prism 9.0.
# T1 sequence (P43220 24-463): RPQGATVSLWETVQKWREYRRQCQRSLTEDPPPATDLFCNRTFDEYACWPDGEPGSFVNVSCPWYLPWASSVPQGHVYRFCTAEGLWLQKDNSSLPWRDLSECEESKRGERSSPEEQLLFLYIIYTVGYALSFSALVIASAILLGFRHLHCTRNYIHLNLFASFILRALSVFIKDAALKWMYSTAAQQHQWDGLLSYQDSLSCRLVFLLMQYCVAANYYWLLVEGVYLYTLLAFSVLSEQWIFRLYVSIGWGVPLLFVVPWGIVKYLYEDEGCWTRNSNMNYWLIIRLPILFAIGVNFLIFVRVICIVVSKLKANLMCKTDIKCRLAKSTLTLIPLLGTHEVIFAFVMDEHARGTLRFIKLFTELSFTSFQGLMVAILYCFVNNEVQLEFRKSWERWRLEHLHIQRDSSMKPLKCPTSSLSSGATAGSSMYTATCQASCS
row,Structure (SMILES),EC50 [nM]
1,"N#Cc1ccc(OCc2nccc(OC3C[C@H]4CC[C@@H](C3)N4Cc3nc4ccc(C(=O)O)cc4n3C[C@@H]3CCO3)n2)c(F)c1 (single isomer, unassigned) [Compound 488]",50 to 500
2,"CCn1cncc1Cn1c(CN2CCC([C@@H](F)c3cccc(COc4ccc(Cl)cc4C#N)c3)CC2)nc2ccc(C(=O)O)cc21 (single isomer, unassigned) [Example 260]",< 50
3,"CCn1cncc1Cn1c(CN2CCC([C@H](F)c3cccc(COc4ccc(Cl)cc4C#N)c3)CC2)nc2ccc(C(=O)O)cc21 (single isomer, unassigned) [Example 263]",< 50
4,O=C(O)c1ccc2nc(CN3CCC(Oc4cccc(COc5ccc(F)cc5Cl)c4)CC3)n(C[C@@H]3CCO3)c2c1 [Compound 207],< 50
5,"CN(c1ccnc(COc2ccc(Cl)cc2F)n1)C1CCN(Cc2nc3ccc(C(=O)O)cc3n2C[C@@H]2CCO2)CC1 [Compound 382, 2-{[4-({2-[(4-chloro-2-fluorophenoxy)methyl]pyrimidin-4-yl}(methyl)amino)piperidin-1-yl]methyl}-1-{[(2S)-oxetan-2-yl]methyl}-1H-1,3-benzodiazole-6-carboxylic acid]",< 50
6,"O=C(O)c1ccc2nc(CN3CCC(Nc4ccnc(COc5ccc(Cl)cc5F)n4)CC3)n(C[C@@H]3CCO3)c2c1 [Example 381, (S)-2-((4-((2-((4-Chloro-2-fluorophenoxy)methyl)pyrimidin-4-yl)amino)piperidin-1-yl)methyl)-1-(oxetan-2-ylmethyl)-1H-benzo[d]imidazole-6-carboxylic acid]",< 50

# From US12459929B2 (Carmot Therapeutics Inc., priority 2021, dated 2025)
